# Columns and labels:
# [1] = tested on: Echinochloa oryzicola Vasing. (Eo); assay: Test for herbicidal effect by paddy field soil treatment (Test Example 1); type: in vivo; conditions: application amount (active ingredient) 100 g/10 a, examined at the 21st day from the treatment, index per Table 40
# Summary of the method: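 Scored on a standard scale at day 21 in the greenhouse: herbicidal effect of wettable powder applied to flooded water (3 cm depth) at 100 g a.i./10 ares, one day after sowing Eo into puddled paddy soil.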
# [2] = tested on: Echinochloa crus-galli (L.) Beauv. var. crusgall (Ec); assay: Test for herbicidal effect by upland field soil treatment (Test Example 2), Ec; type: in vivo
# Summary of the method: (§1)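 Pre-emergence soil treatment: wettable powder diluted in water and sprayed on soil just sown with Ec and Se seeds, delivering 100 g active ingredient per 10 ares in 100 liters per 10 ares. Herbicidal effect was rated against a fixed scale 21 days later, after greenhouse growth.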
# [3] = tested on: Setaria viridis (L.) Beauv. (Se); assay: Test for herbicidal effect by upland field soil treatment (Test Example 2), Se; type: in vivo
# Summary of the method: as §1
# [4] = tested on: Polygonum lapathifolium L. subsp. nodosum (Pers.) Kitam. (Po); assay: Test for herbicidal effect to broadleaf weeds by upland field soil treatment (Test Example 6), Po; type: in vivo; conditions: 25 g/10 a active ingredient, 30th day
# Experimental: (§2) Test for herbicidal effect to broadleaf weeds by upland field soil treatment
# (§3) An upland field soil was filled in a plastic pot of 80 cm^2. Seeds of Polygonum lapathifolium L. subsp. nodosum (Pers.) Kitam. (Po) and Chenopodium album L. (Ch) were sowed, followed by covering with the same soil. Wettable powders produced in accordance with the Formulation 1 were diluted with water and sprayed uniformly on the soil surface using a small sprayer, […] Then, breeding was made in a greenhouse. At the 30th day from the treatment, the herbicidal effect of each wettable powder was examined in accordance with the standard shown in Table 40.
# [5] = tested on: Monochoria vaginalis Presl (Mo); assay: Test for herbicidal effect during breeding period by paddy field water treatment (Test Example 5), Mo; type: in vivo; conditions: paddy field water treatment at 1-leaf stage, 25 g/10 a active ingredient, 30th day
# Experimental: (§4) [table] <Test Example 5> Test For Herbicidal Effect During Breeding Period By Paddy Field Water Treatment A paddy field soil was filled in a plastic pot of 100 cm^2 and subjected to puddling. Seeds of Monochoria vaginalis Presl (Mo) and Scirpus juncoides Roxb. subsp. juncoides Roxb. (Sc) were sowed; water was filled in a depth of 3 cm; and breeding was made. When Mo reached a 1-leaf stage and Sc reached a 2-leaf stage, wettable powders produced in accordance with the Formulation 1 were diluted with water and dropped on the water surface. […] Then, breeding was made in a greenhouse. At the 30th day from the treatment, the herbicidal effect of each wettable powder was examined in accordance with the standard shown in Table 40.
# [6] = tested on: Scirpus juncoides Roxb. subsp. juncoides Roxb. (Sc); assay: Test for herbicidal effect during breeding period by paddy field water treatment (Test Example 5), Sc; type: in vivo; conditions: paddy field water treatment at 2-leaf stage, 25 g/10 a active ingredient, 30th day
# Experimental: as §4
# [7] = tested on: Chenopodium album L. (Ch); assay: Test for herbicidal effect to broadleaf weeds by upland field soil treatment (Test Example 6), Ch; type: in vivo; conditions: 25 g/10 a active ingredient, 30th day
# Experimental: as §2, §3
# [8] = tested on: Echinochloa crus-galli (L.) Beauv. var. crusgalli (Ec); assay: Test for herbicidal effect by upland foliage treatment (Test Example 3); type: in vivo; conditions: 100 g/10 a active ingredient, examined at 14th day
# Summary of the method: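 Scored 14 days post-spray against a graded standard: greenhouse-grown Ec, 2 weeks old in upland soil, received whole-foliage application of diluted wettable powder (100 g active ingredient per 10 ares, spray volume 100 L per 10 ares).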
# [9] = application amount (active ingredient) 100 g/10 a, examined at the 21st day from the treatment, index per Table 40
# [10] = 100 g/10 a active ingredient, examined at 21st day
melting point,Structure (SMILES),Herbicidal effect to Eo [1],"Herbicidal effect to Ec [2, 9]","Herbicidal effect to Se [3, 9]",Herbicidal effect to Po [4],Herbicidal effect to Mo [5],Herbicidal effect to Sc [6],Herbicidal effect to Ch [7],Herbicidal effect to Ec [8],"Herbicidal effect to Ec [2, 10]","Herbicidal effect to Se [3, 10]"
77 to 80 °C,"CC1(C)CC(SCc2c(F)cccc2F)=NO1 [Compound 1-38, 3-(2,6-difluorobenzylthio)-5,5-dimethyl-2-isoxazoline]",5 (A herbicidal effect or phytotoxicity of 90% or more),4 (A herbicidal effect or phytotoxicity of 70% to less than 90%),4 (A herbicidal effect or phytotoxicity of 70% to less than 90%),,,,,,,
,"CC1(C)CC(S(=O)(=O)Cc2c(F)cccc2F)=NO1 [Compound 1-39, 3-(2,6-difluorobenzylsulfonyl)-5,5-dimethyl-2-isoxazoline]",5 (A herbicidal effect or phytotoxicity of 90% or more),5 (A herbicidal effect or phytotoxicity of 90% or more),5 (A herbicidal effect or phytotoxicity of 90% or more),4 (A herbicidal effect or phytotoxicity of 70% to less than 90%),5 (A herbicidal effect or phytotoxicity of 90% or more),5 (A herbicidal effect or phytotoxicity of 90% or more),5 (A herbicidal effect or phytotoxicity of 90% or more),5 (A herbicidal effect or phytotoxicity of 90% or more),,
,CC1(C)CC(S(=O)(=O)Cc2ccccc2OC(F)(F)F)=NO1 [Compound 1-58],5 (A herbicidal effect or phytotoxicity of 90% or more),5 (A herbicidal effect or phytotoxicity of 90% or more),5 (A herbicidal effect or phytotoxicity of 90% or more),,4 (A herbicidal effect or phytotoxicity of 70% to less than 90%),5 (A herbicidal effect or phytotoxicity of 90% or more),,5 (A herbicidal effect or phytotoxicity of 90% or more),,
,CCc1ccccc1CS(=O)(=O)C1=NOC(C)(C)C1 [Compound 1-8],5 (A herbicidal effect or phytotoxicity of 90% or more),5 (A herbicidal effect or phytotoxicity of 90% or more),5 (A herbicidal effect or phytotoxicity of 90% or more),,5 (A herbicidal effect or phytotoxicity of 90% or more),4 (A herbicidal effect or phytotoxicity of 70% to less than 90%),,5 (A herbicidal effect or phytotoxicity of 90% or more),,
,CC1(C)CC(S(=O)(=O)Cc2ccccc2C(F)(F)F)=NO1 [Compound 1-157],5 (A herbicidal effect or phytotoxicity of 90% or more),5 (A herbicidal effect or phytotoxicity of 90% or more),5 (A herbicidal effect or phytotoxicity of 90% or more),,5 (A herbicidal effect or phytotoxicity of 90% or more),5 (A herbicidal effect or phytotoxicity of 90% or more),,5 (A herbicidal effect or phytotoxicity of 90% or more),,
82 to 84 °C,"CC1(C)CC(S(C)(=O)=O)=NO1 [Compound 2-1, 3-methylsulfonyl-5,5-dimethyl-2-isoxazoline]",,,,,,,,,,
,CC1(C)CC(S(=O)(=O)Cc2c(Cl)cccc2OCC(F)(F)F)=NO1 [Compound 1-567],5 (A herbicidal effect or phytotoxicity of 90% or more),,,,5 (A herbicidal effect or phytotoxicity of 90% or more),5 (A herbicidal effect or phytotoxicity of 90% or more),,4 (A herbicidal effect or phytotoxicity of 70% to less than 90%),5 (A herbicidal effect or phytotoxicity of 90% or more),5 (A herbicidal effect or phytotoxicity of 90% or more)
,Cc1cc(C)c(C)c(CS(=O)(=O)C2=NOC(C)(C)C2)c1C [Compound 1-547],5 (A herbicidal effect or phytotoxicity of 90% or more),,,,5 (A herbicidal effect or phytotoxicity of 90% or more),5 (A herbicidal effect or phytotoxicity of 90% or more),,5 (A herbicidal effect or phytotoxicity of 90% or more),5 (A herbicidal effect or phytotoxicity of 90% or more),5 (A herbicidal effect or phytotoxicity of 90% or more)
,CC(C)Oc1ccccc1CS(=O)(=O)C1=NOC(C)(C)C1 [Compound 1-49],5 (A herbicidal effect or phytotoxicity of 90% or more),5 (A herbicidal effect or phytotoxicity of 90% or more),5 (A herbicidal effect or phytotoxicity of 90% or more),,5 (A herbicidal effect or phytotoxicity of 90% or more),5 (A herbicidal effect or phytotoxicity of 90% or more),,5 (A herbicidal effect or phytotoxicity of 90% or more),,
